{
  "source": "patent US8802597B2",
  "about": "“Herbicidal pyrimidines” (E I du Pont de Nemours and Company, priority 2003, dated 2014)",
  "type_in_all_cases": "in vivo",
  "key": {"[1]": {"test_system": "pigweed (Amaranthus retroflexus)", "test": "Test B pre/postemergence", "in_short": "(§1)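 Formulation: non-phytotoxic solvent blend with surfactant. Timing: preemergence on seeds, postemergence at 1- to 4-leaf (2–18 cm). Assessment: visual, 0–100 against controls, after 13–15 days' greenhouse growth.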"}, "[2]": {"test_system": "morningglory (Ipomoea coccinea)", "test": "Test B pre/postemergence", "in_short": "as §1"}, "[3]": {"test_system": "Surinam grass (Brachiaria decumbens)", "test": "Test B pre/postemergence", "in_short": "as §1"}, "[4]": {"test_system": "wheat (Triticum aestivum)", "test": "Test B pre/postemergence", "in_short": "as §1"}, "[5]": {"test_system": "cocklebur (Xanthium strumarium)", "test": "Test B pre/postemergence", "in_short": "as §1"}, "corn (Zea mays)": {"test_system": "corn (Zea mays)", "test": "Test B pre/postemergence", "in_short": "as §1"}, "[6]": {"test_system": "barnyardgrass (Echinochloa crus-galli)", "test": "Test B pre/postemergence", "in_short": "as §1"}, "[7]": {"test_system": "giant foxtail (Setaria faberii)", "test": "Test B pre/postemergence", "in_short": "as §1"}, "[8]": {"test_system": "velvetleaf (Abutilon theophrasti)", "test": "Test B pre/postemergence", "in_short": "as §1"}, "[9]": {"test_system": "lambsquarters (Chenopodium album)", "test": "Test B pre/postemergence", "in_short": "as §1"}, "[10]": {"test_system": "crabgrass (Digitaria sanguinalis)", "test": "Test B pre/postemergence", "in_short": "as §1"}, "[11]": {"test_system": "barnyardgrass (Echinochloa crus-galli)", "test": "Test B flooded paddy test", "details": "Flood, 1000 g ai/ha; scale 0 (no effect) to 100 (complete control)", "in_short": "(§2)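 Visual injury scoring (0 = no effect, 100 = complete control) versus controls made 13 to 15 days after treatment in the greenhouse. Test species were grown in flooded paddy to the 2-leaf stage: rice, barnyardgrass, umbrella sedge, duck salad.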"}, "rice (Oryza sativa) [12]": {"test_system": "rice (Oryza sativa)", "test": "Test B flooded paddy test", "details": "Flood, 1000 g ai/ha; scale 0 to 100", "in_short": "as §2"}, "[13]": {"test_system": "duck salad (Heteranthera limosa)", "test": "Test B flooded paddy test", "details": "Flood, 1000 g ai/ha; scale 0 to 100", "in_short": "as §2"}, "[14]": {"test_system": "umbrella sedge (Cyperus difformis)", "test": "Test B flooded paddy test", "details": "Flood, 1000 g ai/ha; scale 0 to 100", "in_short": "as §2"}, "wild oat (Avena fatua)": {"test_system": "wild oat (Avena fatua)", "test": "Test B postemergence", "in_short": "as §1"}, "[15]": {"test_system": "blackgrass (Alopecurus myosuroides)", "test": "Test B postemergence", "in_short": "as §1"}, "[16]": {"test_system": "barnyardgrass (Echinochloa crus-galli)", "test": "Test C flooded paddy test", "details": "Flood", "procedure": "(§3) At the same time, plants selected from these crop and weed species and also winter barley (Hordeum vulgare), blackgrass (Alopecurus myosuroides), canarygrass (Phalaris minor), chickweed (Stellaria media), downy brome (Bromus tectorum), green foxtail (Setaria viridis), Italian ryegrass (Lolium multiflorum), wheat (Triticum aestivum), wild oat (Avena fatua) and windgrass (Apera spica-venti) were treated with postemergence applications of some of the test chemicals formulated in the same manner. Plants ranged in height from 2 to 18 cm (1- to 4-leaf stage) for postemergence treatments. Plant species in the flooded paddy test consisted of rice (Oryza sativa), umbrella sedge (Cyperus difformis), duck salad (Heteranthera limosa) and barnyardgrass (Echinochloa crus-galli) grown to the 2-leaf stage for testing. Treated plants and controls were maintained in a greenhouse for 12 to 14 days, after which time all species were compared to controls and visually evaluated. Plant response ratings, summarized in Table C, are based on a scale of 0 to 100 where 0 is no effect and 100 is complete control. A dash (-) response means no test result."}, "rice (Oryza sativa) [17]": {"test_system": "rice (Oryza sativa)", "test": "Test C flooded paddy test", "details": "Flood, scale 0 to 100", "procedure": "as §3"}, "[18]": {"test_system": "duck salad (Heteranthera limosa)", "test": "Test C flooded paddy test", "details": "Flood, scale 0 to 100", "procedure": "as §3"}, "[19]": {"test_system": "umbrella sedge (Cyperus difformis)", "test": "Test C flooded paddy test", "details": "Flood, scale 0 to 100", "procedure": "as §3"}, "[20]": {"details": "Postemergence, 125 g ai/ha, scale 0 to 100 (0 no effect, 100 complete control)"}, "[21]": {"details": "Postemergence, 500 g ai/ha, scale 0 to 100"}, "[22]": {"details": "Preemergence, 125 g ai/ha, scale 0 to 100 (0 no effect, 100 complete control)"}, "[23]": {"details": "Preemergence, 500 g ai/ha, scale 0 to 100 (0 no effect, 100 complete control)"}, "[24]": {"details": "125 g ai/ha, scale 0 to 100 (0 no effect, 100 complete control)"}},
  "data": [
    {"smiles": "CC(C)OC(=O)c1nc(C2CC2)nc(N)c1Br", "note": "[Compound 14]", "values": [
      {"measurement": "Pigweed plant response rating", "setting": "[1]; [20]", "result": 80},
      {"measurement": "Plant response rating, Pigweed", "setting": "[1]; [21]", "result": 90},
      {"measurement": "Plant response rating, Pigweed", "setting": "[1]; [22]", "result": 80},
      {"measurement": "Pigweed plant response rating", "setting": "[1]; [23]", "result": 90},
      {"measurement": "Morningglory plant response rating", "setting": "[2]; [20]", "result": 100},
      {"measurement": "Plant response rating, Morningglory", "setting": "[2]; [21]", "result": 100},
      {"measurement": "Plant response rating, Morningglory", "setting": "[2]; [22]", "result": 70},
      {"measurement": "Morningglory plant response rating", "setting": "[2]; [23]", "result": 100},
      {"measurement": "Surinam Grass plant response rating", "setting": "[3]; [20]", "result": 10},
      {"measurement": "Plant response rating, Surinam Grass", "setting": "[3]; [21]", "result": 50},
      {"measurement": "Plant response rating, Surinam Grass", "setting": "[3]; [22]", "result": 40},
      {"measurement": "Surinam Grass plant response rating", "setting": "[3]; [23]", "result": 80},
      {"measurement": "Wheat plant response rating", "setting": "[4]; [20]", "result": 20},
      {"measurement": "Plant response rating, Wheat", "setting": "[4]; [21]", "result": 50},
      {"measurement": "Plant response rating, Wheat", "setting": "[4]; [22]", "result": 40},
      {"measurement": "Wheat plant response rating", "setting": "[4]; [23]", "result": 50},
      {"measurement": "Cocklebur plant response rating", "setting": "[5]; [20]", "result": 50},
      {"measurement": "Plant response rating, Cocklebur", "setting": "[5]; [21]", "result": 70},
      {"measurement": "Plant response rating, Cocklebur", "setting": "[5]; [22]", "result": 60},
      {"measurement": "Cocklebur plant response rating", "setting": "[5]; [23]", "result": 80},
      {"measurement": "Corn plant response rating", "setting": "corn (Zea mays); [20]", "result": 30},
      {"measurement": "Plant response rating, Corn", "setting": "corn (Zea mays); [21]", "result": 70},
      {"measurement": "Plant response rating, Corn", "setting": "corn (Zea mays); [22]", "result": 0},
      {"measurement": "Corn plant response rating", "setting": "corn (Zea mays); [23]", "result": 70},
      {"measurement": "Barnyardgrass plant response rating", "setting": "[6]; [20]", "result": 30},
      {"measurement": "Plant response rating, Barnyardgrass", "setting": "[6]; [21]", "result": 90},
      {"measurement": "Plant response rating, Barnyardgrass", "setting": "[6]; [22]", "result": 10},
      {"measurement": "Barnyardgrass plant response rating", "setting": "[6]; [23]", "result": 80},
      {"measurement": "Foxtail, Giant plant response rating", "setting": "[7]; [20]", "result": 20},
      {"measurement": "Plant response rating, Foxtail, Giant", "setting": "[7]; [21]", "result": 50},
      {"measurement": "Plant response rating, Foxtail, Giant", "setting": "[7]; [22]", "result": 30},
      {"measurement": "Foxtail, Giant plant response rating", "setting": "[7]; [23]", "result": 80},
      {"measurement": "Velvetleaf plant response rating", "setting": "[8]; [20]", "result": 50},
      {"measurement": "Plant response rating, Velvetleaf", "setting": "[8]; [21]", "result": 70},
      {"measurement": "Plant response rating, Velvetleaf", "setting": "[8]; [22]", "result": 60},
      {"measurement": "Velvetleaf plant response rating", "setting": "[8]; [23]", "result": 80},
      {"measurement": "Lambsquarters plant response rating", "setting": "[9]; [20]", "result": 100},
      {"measurement": "Plant response rating, Lambsquarters", "setting": "[9]; [21]", "result": 100},
      {"measurement": "Plant response rating, Lambsquarters", "setting": "[9]; [22]", "result": 90},
      {"measurement": "Lambsquarters plant response rating", "setting": "[9]; [23]", "result": 100},
      {"measurement": "Crabgrass plant response rating", "setting": "[10]; [20]", "result": 10},
      {"measurement": "Plant response rating, Crabgrass", "setting": "[10]; [21]", "result": 30},
      {"measurement": "Plant response rating, Crabgrass", "setting": "[10]; [22]", "result": 10},
      {"measurement": "Crabgrass plant response rating", "setting": "[10]; [23]", "result": 80},
      {"measurement": "Plant response rating, Barnyardgrass", "setting": "[11]", "result": 80},
      {"measurement": "Plant response rating, Rice", "setting": "rice (Oryza sativa) [12]", "result": 20},
      {"measurement": "Plant response rating, Ducksalad", "setting": "[13]", "result": 80},
      {"measurement": "Plant response rating, Sedge, Umbrella", "setting": "[14]", "result": 50},
      {"measurement": "Oat, Wild plant response rating", "setting": "wild oat (Avena fatua); [24]", "result": 20},
      {"measurement": "Plant response rating, Oat, Wild", "setting": "wild oat (Avena fatua); 500 g ai/ha, scale 0 to 100", "result": 70},
      {"measurement": "Blackgrass plant response rating", "setting": "[15]; [24]", "result": 30},
      {"measurement": "Plant response rating, Blackgrass", "setting": "[15]; 500 g ai/ha, scale 0 to 100", "result": 60},
      {"measurement": "Plant response rating, Barnyardgrass", "setting": "[16]; 62 g ai/ha, scale 0 to 100", "result": 0},
      {"measurement": "Plant response rating, Barnyardgrass", "setting": "[16]; 125 g ai/ha, scale 0 to 100", "result": 0},
      {"measurement": "Plant response rating, Barnyardgrass", "setting": "[16]; 250 g ai/ha, scale 0 to 100", "result": 0},
      {"measurement": "Plant response rating, Barnyardgrass", "setting": "[16]; 500 g ai/ha, scale 0 to 100 (0 no effect, 100 complete control)", "result": 45},
      {"measurement": "Plant response rating, Rice", "setting": "rice (Oryza sativa) [17]; 62 g ai/ha", "result": 0},
      {"measurement": "Plant response rating, Rice", "setting": "rice (Oryza sativa) [17]; 125 g ai/ha", "result": 0},
      {"measurement": "Plant response rating, Rice", "setting": "rice (Oryza sativa) [17]; 250 g ai/ha", "result": 0},
      {"measurement": "Plant response rating, Rice", "setting": "rice (Oryza sativa) [17]; 500 g ai/ha", "result": 0},
      {"measurement": "Plant response rating, Ducksalad", "setting": "[18]; 62 g ai/ha", "result": 0},
      {"measurement": "Plant response rating, Ducksalad", "setting": "[18]; 125 g ai/ha", "result": 40},
      {"measurement": "Plant response rating, Ducksalad", "setting": "[18]; 250 g ai/ha", "result": 45},
      {"measurement": "Plant response rating, Ducksalad", "setting": "[18]; 500 g ai/ha", "result": 55},
      {"measurement": "Plant response rating, Sedge, Umbrella", "setting": "[19]; 62 g ai/ha", "result": 0},
      {"measurement": "Plant response rating, Sedge, Umbrella", "setting": "[19]; 125 g ai/ha", "result": 0},
      {"measurement": "Plant response rating, Sedge, Umbrella", "setting": "[19]; 250 g ai/ha", "result": 0},
      {"measurement": "Plant response rating, Sedge, Umbrella", "setting": "[19]; 500 g ai/ha", "result": 30}
    ]}
  ]
}
